Literature values as cited in PMC11068032 (Journal of medicinal chemistry, 2023).

Details: cited from earlier work

COc1ccc(C(=O)Nc2ccc(NS(C)(=O)=O)c(OCc3cc(OC)ccc3OC)c2)cc1 [Compound I, N-(3-((2,5-dimethoxybenzyl)oxy)-4-(methylsulfonamido)phenyl)-4-methoxybenzamide]
AUC in brain tissue as share of the AUC in plasma: about 2% | half-life: about 1.5 h
